Results taken from patent US9708314B2, “Heterocyclic amide compound” (NISSAN CHEMICAL INDUSTRIES, LTD., priority 2013, dated 2017).

How the values were obtained:
Format in all cases: in vivo
Conditions in all cases: application to foliage, 320 g/ha
Brassica campestris L. = assay: Test Example 4: effect on crop by application to foliage (diluvial soil, plastic box)
From the text: (§1) 5 Herbicidal ratio of 90% or more (almost completely withered) 4 Herbicidal ratio of 70% or more and less than 90% 3 Herbicidal ratio of 40% or more and less than 70% 2 Herbicidal ratio of 20% or more and less than 40% 1 Herbicidal ratio of 5% or more and less than 20% 0 Herbicidal ratio of 5% or less (almost no effect) [Test Example 4] Herbicidal Effect Test by Application to Foliage Sterilized diluvial soil was placed in a plastic box having a length of 21 cm, a width of 13 cm, and a depth of 7 cm. Each of the seeds of Digitaria ciliaris, Setaria viridis, Echinochloa crus-galli var. crus-galli, Avena fatua, Alopecurus myosuroides, Lolium multiflorum Lam., Apera spica-venti., Abutilon theophrasti, Amaranthus retroflexus, Chenopodium album, Stellaria media, Galium spurium, Veronica persica, Zea mays, Glycine max, Oryza sativa, Triticum aestivum, Beta vulgaris ssp. vulgaris, and Brassica campestris L. was sowed in a spot-like manner and was covered with the soil of about 1.5 cm thick. Thereafter, the plants were grown in the greenhouse of 25° C. to 30° C. After the plants were grown for 14 days, the emulsion agent containing the compound of the present invention prepared in accordance with Formulation Example 2 was diluted with water so as to be a predetermined herbicide amount and the diluted compound was uniformly applied to a stem and leaf part with a small-size spray. Three weeks after the herbicide application, effects on each plant were investigated in accordance with the criteria of Test Example 1. A: Echinochloa oryzicola Vasing., B: Scirpus juncoides, C: Monochoria vaginalis, D: Leptochloa chinensis, E: Cyperus difformis, F: Digitaria ciliaris, G: Setaria viridis, H: Echinochloa crus-galli var. crus-galli, I: Avena fatua, J: Alopecurus myosuroides, K: Lolium multiflorum Lam., L: Apera spica-venti., M: Abutilon theophrasti, N: Amaranthus retroflexus, O: Chenopodium album, P: Stellaria media, Q: Galium spurium, R: Veronica persica, a: transplanted Oryza sativa, b: directly sowed Oryza sativa, c: Zea mays, d: Glycine max, e: Triticum aestivum, f: Beta vulgaris ssp. vulgaris, and g: Brassica campestris L. The application herbicide amount (g/ha) means an amount that a concentration is adjusted so that, when an application amount is converted into per hectare (1 ha), the herbicide is applied by the number of grams (g) of the described value.

[1] = tested on: Beta vulgaris ssp. vulgaris; assay: as above
From the text: as §1

Glycine max = assay: as above
From the text: as §1

Zea mays = assay: as above
From the text: as §1

Triticum aestivum = assay: as above
From the text: as §1

[2] = tested on: directly sowed Oryza sativa; assay: as above
From the text: as §1

Alopecurus myosuroides = assay: Test Example 4: herbicidal effect by application to foliage (diluvial soil, plastic box)
From the text: as §1

Stellaria media = assay: as above
From the text: as §1

[3] = tested on: Echinochloa crus-galli var. crus-galli; assay: as above
From the text: as §1

Avena fatua = assay: as above
From the text: as §1

Chenopodium album = assay: as above
From the text: as §1

Lolium multiflorum Lam. = assay: as above
From the text: as §1

Galium spurium = assay: as above
From the text: as §1

Apera spica-venti. = assay: as above
From the text: as §1

Digitaria ciliaris = assay: as above
From the text: as §1

Abutilon theophrasti = assay: as above
From the text: as §1

Setaria viridis = assay: as above
From the text: as §1

Amaranthus retroflexus = assay: as above
From the text: as §1

Veronica persica = assay: as above
From the text: as §1

Row | SMILES | effect on crop, g (Brassica campestris L.) (Brassica campestris L.) | effect on crop, f (Beta vulgaris ssp. vulgaris) [1] | effect on crop, c (Glycine max) (Glycine max) | effect on crop, b (Zea mays) (Zea mays) | effect on crop, e (Triticum aestivum) (Triticum aestivum) | effect on crop, d (directly sowed Oryza sativa) [2] | herbicidal effect, J (Alopecurus myosuroides) (Alopecurus myosuroides) | herbicidal effect, P (Stellaria media) (Stellaria media) | herbicidal effect, H (Echinochloa crus-galli var. crus-galli) [3] | herbicidal effect, I (Avena fatua) (Avena fatua) | herbicidal effect, O (Chenopodium album) (Chenopodium album) | herbicidal effect, K (Lolium multiflorum Lam.) (Lolium multiflorum Lam.) | herbicidal effect, Q (Galium spurium) (Galium spurium) | herbicidal effect, L (Apera spica-venti.) (Apera spica-venti.) | herbicidal effect, F (Digitaria ciliaris) (Digitaria ciliaris) | herbicidal effect, M (Abutilon theophrasti) (Abutilon theophrasti) | herbicidal effect, G (Setaria viridis) (Setaria viridis) | herbicidal effect, N (Amaranthus retroflexus) (Amaranthus retroflexus) | herbicidal effect, R (Veronica persica) (Veronica persica)
1 | CC(C)c1nnc2c(C(=O)Nc3ncnn3C)ccc(C(F)(F)F)n12 [4-001] | 0 (Herbicidal ratio of 5% or less (almost no effect)) | 2 (Herbicidal ratio of 20% or more and less than 40%) | 0 (Herbicidal ratio of 5% or less (almost no effect)) | 0 (Herbicidal ratio of 5% or less (almost no effect)) | 0 (Herbicidal ratio of 5% or less (almost no effect)) | 2 (Herbicidal ratio of 20% or more and less than 40%) | 0 (Herbicidal ratio of 5% or less (almost no effect)) | 3 (Herbicidal ratio of 40% or more and less than 70%) | 3 (Herbicidal ratio of 40% or more and less than 70%) | 1 (Herbicidal ratio of 5% or more and less than 20%) | 5 (Herbicidal ratio of 90% or more (almost completely withered)) | 0 (Herbicidal ratio of 5% or less (almost no effect)) | 3 (Herbicidal ratio of 40% or more and less than 70%) | 0 (Herbicidal ratio of 5% or less (almost no effect)) | 1 (Herbicidal ratio of 5% or more and less than 20%) | 5 (Herbicidal ratio of 90% or more (almost completely withered)) | 2 (Herbicidal ratio of 20% or more and less than 40%) | 5 (Herbicidal ratio of 90% or more (almost completely withered)) | 3 (Herbicidal ratio of 40% or more and less than 70%)
2 | CC(C)c1nnc2c(C(=O)Nc3ncn[nH]3)ccc(C(F)(F)F)n12 [4-004] | 0 (Herbicidal ratio of 5% or less (almost no effect)) | 0 (Herbicidal ratio of 5% or less (almost no effect)) | 0 (Herbicidal ratio of 5% or less (almost no effect)) | 0 (Herbicidal ratio of 5% or less (almost no effect)) | 0 (Herbicidal ratio of 5% or less (almost no effect)) | 0 (Herbicidal ratio of 5% or less (almost no effect)) | 0 (Herbicidal ratio of 5% or less (almost no effect)) | 0 (Herbicidal ratio of 5% or less (almost no effect)) | 0 (Herbicidal ratio of 5% or less (almost no effect)) | 0 (Herbicidal ratio of 5% or less (almost no effect)) | 4 (Herbicidal ratio of 70% or more and less than 90%) | 0 (Herbicidal ratio of 5% or less (almost no effect)) | 0 (Herbicidal ratio of 5% or less (almost no effect)) | 0 (Herbicidal ratio of 5% or less (almost no effect)) | 0 (Herbicidal ratio of 5% or less (almost no effect)) | 0 (Herbicidal ratio of 5% or less (almost no effect)) | 0 (Herbicidal ratio of 5% or less (almost no effect)) | 0 (Herbicidal ratio of 5% or less (almost no effect)) | 0 (Herbicidal ratio of 5% or less (almost no effect))
3 | Cc1nnc(NC(=O)c2ccc(C(F)(F)F)n3c(=O)n(C)nc23)o1 [6-001] | 0 (Herbicidal ratio of 5% or less (almost no effect)) | 3 (Herbicidal ratio of 40% or more and less than 70%) | 0 (Herbicidal ratio of 5% or less (almost no effect)) | 0 (Herbicidal ratio of 5% or less (almost no effect)) | 0 (Herbicidal ratio of 5% or less (almost no effect)) | 0 (Herbicidal ratio of 5% or less (almost no effect)) | 0 (Herbicidal ratio of 5% or less (almost no effect)) | 4 (Herbicidal ratio of 70% or more and less than 90%) | 1 (Herbicidal ratio of 5% or more and less than 20%) | 0 (Herbicidal ratio of 5% or less (almost no effect)) | 4 (Herbicidal ratio of 70% or more and less than 90%) | 0 (Herbicidal ratio of 5% or less (almost no effect)) | 2 (Herbicidal ratio of 20% or more and less than 40%) | 0 (Herbicidal ratio of 5% or less (almost no effect)) | 1 (Herbicidal ratio of 5% or more and less than 20%) | 3 (Herbicidal ratio of 40% or more and less than 70%) | 2 (Herbicidal ratio of 20% or more and less than 40%) | 3 (Herbicidal ratio of 40% or more and less than 70%) | 2 (Herbicidal ratio of 20% or more and less than 40%)
4 | Cc1nnc(NC(=O)c2ccc(C(F)(F)F)n3c(=O)n(C(C)C)nc23)o1 [6-005] | 0 (Herbicidal ratio of 5% or less (almost no effect)) | 1 (Herbicidal ratio of 5% or more and less than 20%) | 0 (Herbicidal ratio of 5% or less (almost no effect)) | 0 (Herbicidal ratio of 5% or less (almost no effect)) | 0 (Herbicidal ratio of 5% or less (almost no effect)) | 0 (Herbicidal ratio of 5% or less (almost no effect)) | 1 (Herbicidal ratio of 5% or more and less than 20%) | 1 (Herbicidal ratio of 5% or more and less than 20%) | 3 (Herbicidal ratio of 40% or more and less than 70%) | 0 (Herbicidal ratio of 5% or less (almost no effect)) | 3 (Herbicidal ratio of 40% or more and less than 70%) | 1 (Herbicidal ratio of 5% or more and less than 20%) | 1 (Herbicidal ratio of 5% or more and less than 20%) | 1 (Herbicidal ratio of 5% or more and less than 20%) | 3 (Herbicidal ratio of 40% or more and less than 70%) | 4 (Herbicidal ratio of 70% or more and less than 90%) | 1 (Herbicidal ratio of 5% or more and less than 20%) | 3 (Herbicidal ratio of 40% or more and less than 70%) | 1 (Herbicidal ratio of 5% or more and less than 20%)
